Values quoted from earlier work as cited in patent US7431914B2, “Contrast agent” (GE Healthcare AS, priority 2003, dated 2008).

Conditions: both the drug and the chelate conjugate

excrete through the liver: more than 80%
SMILES: CCCCc1nc(Cl)c(CO)n1Cc1ccc(-c2ccccc2-c2nn[nH]n2)cc1 [Losartan]
